Reference: patent publication EP1970046A1, “Use of purine and purine derivatives for treating hair” (priority 2007, dated 2008)
Where two headings read alike, the source gives them in different places.

How the values were obtained:
Type in all cases: cell-based
KGF [1] = assay: KGF release from organotypic hair follicle cell cultures (ELISA); conditions: organotypische Haarfollikelzellkulturen
Source text: (§1) Hepatocyte Growth Factor (HGF) und Keratinocyte Growth Factor (KGF) sind wichtige Wachstumsfaktoren, die von der dermalen Papille ausgeschüttet werden, um die Proliferation der Haarschaftkeratinozyten, die für die Synthese der Haarkeratine verantwortlich sind, zu steuern. Sie sind außerdem charakteristische Marker für die Anagenphase, in der auch die Keratinsynthese maximal ist. Darüber hinaus ist zu beachten, dass bei der Haaralterung das Proliferationsvermögen der Haarfollikelzellen abnimmt. Die Ausschüttung von HGF sowie KGF kann mit Hilfe von kommerziell erhältlichen ELISA-Kits quantifiziert werden.
(§2) Dazu werden organotypische Haarfollikelzellkulturn über 72h mit Theophyllin inkubiert und die Konzentration der Wachstumsfaktoren im Medium in beschriebener Weise bestimmt. Tabelle 2: Relative Ausschüttung von HGF und KGF in [%] nach Behandlung des organotypischen Haarfollikelzellkulturen im Vergleich zu unbehandelten Kontrollen.

KGF [2] = assay: KGF release from dermal papilla cells (ELISA); conditions: dermale Papillenzellen
Source text: Der Keratinozyten Wachstumsfaktor Factor (KGF) Ist ein äußerst wichtiger Regulator des Haars. Bei einer potentiell wachstumsfördernden und das Haar stärkenden Aktivsubstanz kann von einer Steigerung der ins Medium ausgeschütteten Faktoren ausgegangen werden. Die Ausschüttung von KGF kann mit Hilfe von kommerziell erhältlichen ELISA-Kits quantifiziert werden. Dazu wurden die dermalen Papillenzellen über 24 Stunden mit Theophyllin inkubiert und die Konzentration des Wachstumsfaktors im Medium in beschriebener Weise quantifiziert. Tabelle 1: Relative Ausschüttung von KGF in [%] nach Behandlung der dermalen Papillenzellen im Vergleich zur unbehandelten Kontrollen.

hha4 [3] = assay: cells; conditions: Keratinocyte, read-out: Haarkeratinexpression hha4 Mittelwert
Experimental: (§3) Zur Bestimmung des Einflusses von Theophyllin auf die Expression von Haarkeratinen wurde die differentielle Genexpression mittels quantitatitiver RT-PCR bestimmt. Nach Anzucht der Keratinozyten der äusseren Wurzelscheide (ORS-Keratinozyten) wurden diese für 3, 6 oder 24 h mit Theophyllin in Konzentration von 1.10 und 100 µM inkubiert.
(§4) Zur Durchführung der PCR wird zunächst mit Hilfe des RNeasy Mini Kits der Fa. Qiagen die RNA aus ORS-Keratinozyten isoliert und mittels reverser Transkription in cDNA umgeschrieben. Bei der anschließenden PCR Reaktion, die mit Hilfe genspezifischer Primer für die jeweiligen haarrelevanten Gene durchgeführt wird und die der Amplifikation der gesuchten Genabschnitte dient, wird die Bildung der PCR-Produkte online über ein Fluoreszenzsignal detektiert. Das Fluoreszenzsignal ist dabei proportional zur Menge des gebildeten PCR-Produktes. Je stärker die Expression eines bestimmten Gens Ist, desto größer Ist die Menge an gebildetem PCR-Produkt und um so höher ist das Fluoreszenzsignal. Zur Quantifizierung der Genexpression wird die unbehandelte Kontrolle gleich 1 gesetzt und die Expression der zu bestimmenden Gene darauf bezogen (x-fache Expression). Dabei werden Werte, die größer/gleich der 2fachen Expression oder kleiner/gleich der 0.5fachen Expression der unbehandelten Kontrolle sind als signifikant differentiell exprimiert eingestuft. Werte, die größer/gleich der 1,6fachen Expression oder kieiner/gleich der 0.66fachen Expression der unbehandelten Kontrolle sind als tendenziell differentiell exprimiert eingestuft. Die Ergebnisse sind in Tabelle 3 zusammengefasst. Tabelle 3: Haarkeratinexpression nach Behandlung von ORS-Keratinozyten in Zellkulturen im Vergleich zur unbehandelten Kontrolle.

hha6 = assay: cells; conditions: Keratinocyte, read-out: Haarkeratinexpression hha6 Mittelwert
Experimental: as §3, §4

hha3 [4] = assay: cells; conditions: Keratinocyte, read-out: Haarkeratinexpression hha3 Mittelwert
Experimental: as §3, §4

hha1 = assay: cells; conditions: Keratinocyte, read-out: Haarkeratinexpression hha1 Mittelwert
Experimental: as §3, §4

hhb6 [5] = assay: cells; conditions: Keratinocyte, read-out: Haarkeratinexpression hhb6 Mittelwert
Experimental: as §3, §4

hha4 [6] = assay: cells; conditions: read-out: Haarkeratinexpression hha4 Mittelwert
Source text: as §4
(§5) Die Aktivierung der Keratinsynthese nach Applikation von Theophyllin wurde zusätzlich mit Hilfe organotypischer Haarfollikelzelikulturen untersucht, in denen verschiedene Zellen des Haarfollikels miteinander interagieren können. Die Untersuchungen erfolgten mit dem in Beispiel 3 erläuterten Verfahren der quantitativen Reverse Transkription Polymerase Kettenreaktion. Die Ergebnisse sind in Tabelle 4 zusammengefasst. Tabelle 4: Haarkeratinexpression nach Behandlung mit Theophyllin in organotpischen Haarfollikelzellkulturen im Vergleich zur unbehandelten Kontrolle.

hha3 [7] = assay: cells; conditions: read-out: Haarkeratinexpression hha3 Mittelwert
Source text: as §4, §5

hhb6 [8] = assay: cells; conditions: read-out: Haarkeratinexpression hhb6 Mittelwert
Source text: as §4, §5

HGF = HGF release from organotypic hair follicle cell cultures (ELISA); conditions: organotypische Haarfollikelzellkulturen
Source text: as §1, §2

Cn1c(=O)c2[nH]cnc2n(C)c1=O [Theophyllin]
Freisetzung von KGF (KGF [1]; 500 µM, result in words): tendenziell erhöhten Freisetzung
activity at 500 µM (KGF [1]; 72h, untreated = 100 (35), spread in brackets, read-out: Relative Ausschüttung von KGF Mittelwert): 144%
activity at 1 µM (KGF [2]; 24 h, 24 Stunden, 1µM, untreated control = 100, read-out: Relative Ausschüttung von KGF Mittelwert): 121%
activity at 10 µM (KGF [2]; 24 h, 24 Stunden, 10µM, untreated control = 100, read-out: Relative Ausschüttung von KGF Mittelwert): 135%
activity at 100 µM (KGF [2]; 24 h, 24 Stunden, 100µM, untreated control = 100, read-out: Relative Ausschüttung von KGF Mittelwert): 161%
Freisetzung von KGF (KGF [2]; result in words): signifikant erhöhten Freisetzung
fold induction at 1 µM (hha4 [3]; 3 h): 0.83
fold induction at 10 µM (hha4 [3]; 3 h): 1.4
fold induction at 100 µM (hha4 [3]; 3 h): 2.41
fold induction at 1 µM (hha4 [3]; 6 h): 0.81
fold induction at 10 µM (hha4 [3]; 6 h): 0.88
fold induction at 100 µM (hha4 [3]; 6 h): 1.31
fold induction at 1 µM (hha4 [3]; 24 h): 1.27
fold induction at 10 µM (hha4 [3]; 24 h): 1.48
fold induction at 100 µM (hha4 [3]; 24 h): 2.65
fold induction at 1 µM (hha6; 3 h): 0.45
fold induction at 10 µM (hha6; 3 h): 0.59
fold induction at 100 µM (hha6; 3 h): 0.28
fold induction at 1 µM (hha6; 6 h): 1.12
fold induction at 10 µM (hha6; 6 h): 0.42
fold induction at 100 µM (hha6; 6 h): 0.57
fold induction at 1 µM (hha6; 24 h): 3.19
fold induction at 10 µM (hha6; 24 h): 2.14
fold induction at 100 µM (hha6; 24 h): 1.61
fold induction at 1 µM (hha3 [4]; 3 h): 0.86
fold induction at 10 µM (hha3 [4]; 3 h): 1.47
fold induction at 100 µM (hha3 [4]; 3 h): 2.47
fold induction at 1 µM (hha3 [4]; 6 h): 0.8
fold induction at 10 µM (hha3 [4]; 6 h): 0.87
fold induction at 100 µM (hha3 [4]; 6 h): 1.25
fold induction at 1 µM (hha3 [4]; 24 h): 1.2
fold induction at 10 µM (hha3 [4]; 24 h): 1.41
fold induction at 100 µM (hha3 [4]; 24 h): 2.75
fold induction at 1 µM (hha1; 3 h): 0.73
fold induction at 10 µM (hha1; 3 h): 1.18
fold induction at 100 µM (hha1; 3 h): 1.38
fold induction at 1 µM (hha1; 6 h): 0.9
fold induction at 10 µM (hha1; 6 h): 0.92
fold induction at 100 µM (hha1; 6 h): 1.22
fold induction at 1 µM (hha1; 24 h): 1.3
fold induction at 10 µM (hha1; 24 h): 1.4
fold induction at 100 µM (hha1; 24 h): 2.49
fold induction at 1 µM (hhb6 [5]; 3 h): 1.09
fold induction at 10 µM (hhb6 [5]; 3 h): 1.12
fold induction at 100 µM (hhb6 [5]; 3 h): 1.78
fold induction at 1 µM (hhb6 [5]; 6 h): 0.8
fold induction at 10 µM (hhb6 [5]; 6 h): 0.76
fold induction at 100 µM (hhb6 [5]; 6 h): 1.23
fold induction at 1 µM (hhb6 [5]; 24 h): 1.34
fold induction at 10 µM (hhb6 [5]; 24 h): 1.28
fold induction at 100 µM (hhb6 [5]; 24 h): 1.98
fold induction at 10 µM (hha4 [6]; 6 h): 0.91
fold induction at 100 µM (hha4 [6]; 6 h): 1.56
fold induction at 10 µM (hha4 [6]; 24 h): 2.08
fold induction at 100 µM (hha4 [6]; 24 h): 1.88
fold induction at 10 µM (hha3 [7]; 6 h): 0.76
fold induction at 100 µM (hha3 [7]; 6 h): 0.76
fold induction at 10 µM (hha3 [7]; 24 h): 2.27
fold induction at 100 µM (hha3 [7]; 24 h): 3
fold induction at 10 µM (hhb6 [8]; 6 h): 1.28
fold induction at 100 µM (hhb6 [8]; 6 h): 2.06
fold induction at 10 µM (hhb6 [8]; 24 h): 1.81
fold induction at 100 µM (hhb6 [8]; 24 h): 1.68
activity at 500 µM (HGF; HGF, 72h, untreated = 100 (14), spread in brackets, read-out: Relative Ausschüttung von HGF Mittelwert): 144%
Freisetzung des Hepatozyten Wachstumsfaktor (HGF) (HGF; 500 µM, result in words): erhöhte Freisetzung
